Laboratory results as given in US20250282735A1, “BICYCLE COMPOUNDS AS TEAD INHIBITOR” (DONG-A ST CO., LTD., priority 2022, published 2025).

System: TEAD reporter-containing human breast cancer cell line MCF7
Assay: TEAD reporter (luciferase) assay
Assay type: cell-based
Conditions: TEAD reporter MCF7 cells, 24 hours treatment, 1% serum media
Description: The TEAD reporter-containing human breast cancer cell line MCF7 (60618, BPS bioscience) was cultured according to the manufacturer's instructions. Cells were plated in 96-well white plates at a density of 30,000 per well and incubated overnight. The following day cells were treated with small molecules in 1% serum media (0.1% v/v DMSO). After 24 hours of the treatment, cell viability was evaluated by using CCK-8 reagent (CK04, Dojindo) and measuring absorbance at 450 nm. Then, the assay for luciferase activity was performed using Dual-Glo® Luciferase Assay System (Promega, E2940) following the manufacturer's instructions. Luminescence intensity was measured and the potency of the compounds was determined by IC50 value generated from non-linear regression analysis of the dose-response curves.
IC50 for luciferase activity are shown in the Table 1 below and designated within the following ranges. [+++: ≤0.1 μM, ++: >0.1 μM to ≤1 μM, +: >1 μM to ≤10 μM, −: >10 μM]

IC50	SMILES
> 10 µM	C=CC(=O)Nc1ccc2c(c1)c(/C=C/c1ccc(Cl)cc1)nn2C(C)C [Compound 6, (E)-N-(3-(4-Chlorostyryl)-1-isopropyl-1H-indazol-5-yl)acrylamide]
0.1 to 1 µM	C=CC(=O)Nc1ccc2c(c1)c(/C=C/C1CCC(F)(F)CC1)nn2C1CCCC1 [Compound 7, (E)-N-(1-Cyclopentyl-3-(2-(4,4-difluorocyclohexyl)vinyl)-1H-indazol-5-yl)acrylamide]
1 to 10 µM	C=CC(=O)Nc1ccc2c(c1)c(/C=C/c1ccc(Cl)cc1)nn2C1CCCC1 [Compound 8, (E)-N-(3-(4-Chlorostyryl)-1-cyclopentyl-1H-indazol-5-yl)acrylamide]
≤ 0.1 µM	C=CC(=O)Nc1cnc2c(c1)c(/C=C/C1CCC(F)(F)CC1)cn2C1CCCC1 [Compound 9, (E)-N-(1-Cyclopentyl-3-(2-(4,4-difluorocyclohexyl)vinyl)-1H-pyrrolo[2,3-b]pyridin-5-yl)acrylamide]
1 to 10 µM	C=CC(=O)Nc1ccc2c(c1)c(/C=C/c1ccc(Cl)cc1)cn2C1CCCC1 [Compound 11, (E)-N-(3-(4-Chlorostyryl)-1-cyclopentyl-1H-indol-5-yl)acrylamide]
0.1 to 1 µM	C=CC(=O)Nc1ccc2c(/C=C/c3ccc(Cl)cc3)cn(C)c2c1 [Compound 12, (E)-N-(3-(4-Chlorostyryl)-1-methyl-1H-indol-6-yl)acrylamide]
1 to 10 µM	C=CC(=O)Nc1cnc2c(c1)c(/C=C/c1ccc(Cl)cc1)cn2C(C)C [Compound 20, (E)-N-(3-(4-Chlorostyryl)-1-isopropyl-1H-pyrrolo[2,3-b]pyridin-5-yl)acrylamide]
> 10 µM	C=CC(=O)Nc1ccc2c(c1)c(/C=C/c1ccc(F)cc1)cn2C(C)C [Compound 29, (E)-N-(3-(4-Fluorostyryl)-1-isopropyl-1H-indol-5-yl)acrylamide]
1 to 10 µM	C=CC(=O)Nc1cc(F)c2c(c1)c(/C=C/C1CCC(F)(F)CC1)cn2C(C)C [Compound 38, (E)-N-(3-(2-(4,4-Difluorocyclohexyl)vinyl)-7-fluoro-1-isopropyl-1H-indol-5-yl)acrylamide]
> 10 µM	C=CC(=O)Nc1cc(F)c2c(c1)c(/C=C/c1ccc(Cl)cc1)cn2C(C)C [Compound 39, (E)-N-(3-(4-Chlorostyryl)-7-fluoro-1-isopropyl-1H-indol-5-yl)acrylamide]
0.1 to 1 µM	C=CC(=O)Nc1cnc2c(c1)c(/C=C/c1ccccc1)cn2C [Compound 45, (E)-N-(1-Methyl-3-styryl-1H-pyrrolo[2,3-b]pyridin-5-yl)acrylamide]
1 to 10 µM	C=CC(=O)Nc1cnc2c(c1)c(/C=C/c1cccc(OC)c1)cn2C [Compound 48, (E)-N-(3-(3-Methoxystyryl)-1-methyl-1H-pyrrolo[2,3-b]pyridin-5-yl)acrylamide]
≤ 0.1 µM	C=CC(=O)Nc1cnc2c(c1)c(-c1cccc(C(F)(F)F)c1)cn2C [Compound 54, N-(1-Methyl-3-(3-(trifluoromethyl)phenyl)-1H-pyrrolo[2,3-b]pyridin-5-yl)acrylamide]
0.1 to 1 µM	C=CC(=O)Nc1cnc2c(c1)c(-c1ccc(SC)cc1)cn2C [Compound 55, N-(1-Methyl-3-(4-(methylthio)phenyl)-1H-pyrrolo[2,3-b]pyridin-5-yl)acrylamide]
1 to 10 µM	C=CC(=O)Nc1cnc2c(c1)c(-c1cccc(C#N)c1)cn2C [Compound 56, N-(3-(3-Cyanophenyl)-1-methyl-1H-pyrrolo[2,3-b]pyridin-5-yl)acrylamide]
1 to 10 µM	C=CC(=O)Nc1cnc2c(c1)c(-c1ccc(C#N)cc1)cn2C [Example 57, N-(3-(4-Cyanophenyl)-1-methyl-1H-pyrrolo[2,3-b]pyridin-5-yl)acrylamide]
0.1 to 1 µM	C=CC(=O)Nc1cnc2c(c1)c(/C=C/C1CCOCC1)cn2C [Example 58, (E)-N-(1-Methyl-3-(2-(tetrahydro-2H-pyran-4-yl)vinyl)-1H-pyrrolo[2,3-b]pyridin-5-yl)acrylamide]
0.1 to 1 µM	C=CC(=O)Nc1cnc2c(c1)c(/C=C/c1ccsc1)cn2C [Example 59, (E)-N-(1-Methyl-3-(2-(thiophen-3-yl)vinyl)-1H-pyrrolo[2,3-b]pyridin-5-yl)acrylamide]
1 to 10 µM	C=CC(=O)Nc1cnc2c(c1)c(/C=C/C1CC1)cn2C [Example 60, (E)-N-(3-(2-Cyclopropylvinyl)-1-methyl-1H-pyrrolo[2,3-b]pyridin-5-yl)acrylamide]
1 to 10 µM	C=CC(=O)Nc1cnc2c(c1)c(/C=C/c1ccc3c(c1)OCCO3)cn2C [Example 61, (E)-N-(3-(2-(2,3-Dihydrobenzo[b][1,4]dioxin-6-yl)vinyl)-1-methyl-1H-pyrrolo[2,3-b]pyridin-5-yl)acrylamide]

IC50	SMILES
> 10 µM	C=CC(=O)Nc1cnc2c(c1)c(/C=C/C1CC1C(=O)OCC)cn2C (stereo not shown) [Example 62, Ethyl (E)-2-(2-(5-acrylamido-1-methyl-1H-pyrrolo[2,3-b]pyridin-3-yl)vinyl)cyclopropane-1-carboxylate]
> 10 µM	C=CC(=O)N(CC(=O)O)c1cnc2c(c1)c(/C=C/c1ccc(Cl)cc1)cn2C [Example 65, (E)-N-Acryloyl-N-(3-(4-chlorostyryl)-1-methyl-1H-pyrrolo[2,3-b]pyridin-5-yl)glycine]
1 to 10 µM	C=CC(=O)N(Cc1nn[nH]n1)c1cnc2c(c1)c(/C=C/c1ccc(Cl)cc1)cn2C [Example 69, (E)-N-((2H-Tetrazol-5-yl)methyl)-N-(3-(4-chlorostyryl)-1-methyl-1H-pyrrolo[2,3-b]pyridin-5-yl)acrylamide]
> 10 µM	C=CC(=O)Nc1ccc2c(c1)c(/C=C/c1ccc(Cl)cc1)cn2C(C)=O [Example 75, (E)-N-(1-Acetyl-3-(4-chlorostyryl)-1H-indol-5-yl)acrylamide]
≤ 0.1 µM	C=CC(=O)Nc1cnc2ccn(Cc3ccc(C(F)(F)F)cc3)c2c1 [Example 76, N-(1-(4-(Trifluoromethyl)benzyl)-1H-pyrrolo[3,2-b]pyridin-6-yl)acrylamide]
0.1 to 1 µM	C=CC(=O)Nc1cnc2ccn(Cc3ccc(F)cc3)c2c1 [Example 78, N-(1-(4-Fluorobenzyl)-1H-pyrrolo[3,2-b]pyridin-6-yl)acrylamide]
0.1 to 1 µM	C=CC(=O)Nc1cnc2c(c1)c(/C=C/c1cccs1)cn2C [Example 82, (E)-N-(1-Methyl-3-(2-(thiophen-2-yl)vinyl)-1H-pyrrolo[2,3-b]pyridin-5-yl)acrylamide]
0.1 to 1 µM	C=CC(=O)Nc1cnc2c(c1)c(-c1cccc(CCC3CCC(F)(F)CC3)c1)cn2C [Example 86, N-(3-(3-(2-(4,4-Difluorocyclohexyl)ethyl)phenyl)-1-methyl-1H-pyrrolo[2,3-b]pyridin-5-yl)acrylamide]
1 to 10 µM	C=CC(=O)Nc1cnc2c(c1)c(-c1ccc(OC)cc1)cn2C [Example 90, N-(3-(4-Methoxyphenyl)-1-methyl-1H-pyrrolo[2,3-b]pyridin-5-yl)acrylamide]
0.1 to 1 µM	C=CC(=O)Nc1cnc2c(c1)c(-c1cccc(Oc3ccccc3)c1)cn2C [Example 94, N-(1-Methyl-3-(3-phenoxyphenyl)-1H-pyrrolo[2,3-b]pyridin-5-yl)acrylamide]
1 to 10 µM	C=CC(=O)Nc1cnc2c(c1)c(C1=CCCCC1)cn2C [Example 101, N-(3-(Cyclohex-1-en-1-yl)-1-methyl-1H-pyrrolo[2,3-b]pyridin-5-yl)acrylamide]
1 to 10 µM	C=CC(=O)Nc1cnc2c(c1)c(-c1ccc(N3CCCCC3)cc1)cn2C [Example 102, N-(1-Methyl-3-(4-(piperidin-1-yl)phenyl)-1H-pyrrolo[2,3-b]pyridin-5-yl)acrylamide]
0.1 to 1 µM	C=CC(=O)Nc1cnc2c(c1)c(-c1ccc(C3CCCCC3)cc1)cn2C [Example 108, N-(3-(4-Cyclohexylphenyl)-1-methyl-1H-pyrrolo[2,3-b]pyridin-5-yl)acrylamide]
1 to 10 µM	C=CC(=O)Nc1cnc2c(c1)c(-c1ccc(C(C)(C)C)cc1)cn2C [Example 109, N-(3-(4-(tert-Butyl)phenyl)-1-methyl-1H-pyrrolo[2,3-b]pyridin-5-yl)acrylamide]
0.1 to 1 µM	C=CC(=O)Nc1cnc2c(c1)c(-c1ccc(CCCC)cc1)cn2C [Example 110, N-(3-(4-Butylphenyl)-1-methyl-1H-pyrrolo[2,3-b]pyridin-5-yl)acrylamide]
> 10 µM	C=CC(=O)Nc1cnc2c(c1)c(-c1ccc(CCCCCCCCC)cc1)cn2C [Example 112, N-(1-Methyl-3-(4-nonylphenyl)-1H-pyrrolo[2,3-b]pyridin-5-yl)acrylamide]
> 10 µM	C=CC(=O)Nc1cnc2c(c1)c(-c1cc(C)c(O)c(C)c1)cn2C [Example 113, N-(3-(4-Hydroxy-3,5-dimethylphenyl)-1-methyl-1H-pyrrolo[2,3-b]pyridin-5-yl)acrylamide]
> 10 µM	Cn1cc(/C=C/c2ccc(Cl)cc2)c2cc(NC(=O)CC#N)cnc21 [Example 115, (E)-N-(3-(4-chlorostyryl)-1-methyl-1H-pyrrolo[2,3-b]pyridin-5-yl)-2-cyanoacetamide]
0.1 to 1 µM	C=CS(=O)(=O)Nc1cnc2c(c1)c(/C=C/c1ccc(Cl)cc1)cn2C [Example 116, (E)-N-(3-(4-Chlorostyryl)-1-methyl-1H-pyrrolo[2,3-b]pyridin-5-yl) ethenesulfonamide]
0.1 to 1 µM	Cn1cc(/C=C/c2ccc(Cl)cc2)c2cc(NS(C)(=O)=O)cnc21 [Example 117, (E)-N-(3-(4-Chlorostyryl)-1-methyl-1H-pyrrolo[2,3-b]pyridin-5-yl) methanesulfonamide]
